The source of these data is publication PMC8268575 (International Journal of Molecular Sciences, 2021).

Entries after “also recorded” stand apart in the source; their conditions may differ.

The subject of one data set is HAoEC. The data set is described as follows: Substrate cleavage in HAoEC, supernatant analysed by MALDI-TOF/TOF. The format is in vitro ADME, human. On the procedure: (§1) The experiment was independently conducted 4 times. […] The supernatants were desalted and concentrated by use of C18 ZipTips (Merck-Millipore, Burlington, MA, USA) and eluted directly on the MALDI target in 70% acetonitrile/0.1% TFA. Subsequently, a MALDI matrix solution of 2.5 mg/mL α-cyano-4-hydroxycinnamic acid in 70% acetonitrile/0.1% TFA was applied on each spot, air-dried at room temperature, and the target was introduced into a 4800 plus MALDI TOF/TOF^TM Analyzer. Mass spectrometry (MS) spectra (mass range: 600–4000 Da) were acquired in positive reflector mode with a laser intensity of 5000. To confirm the identity of the most important peptides, MS/MS spectra were generated by use of collision induced dissociation with a laser intensity of 5500. Calibration was done during analysis using the 6-peptide mixture (AB Sciex, Framingham, MA, USA). Mass spectra were generated by use of the 4000 Series Explorer and analyzed by mMas. […] The ratio of the peak intensity of the cleaved substrate to the peak intensity of the intact substrate is an indication for the C-terminal cleavage of the substrates. To check for additional cleavage sites, a search for other product peaks was completed. Statistical analysis was performed using SPSS software version 27 (IBM). Two-way ANOVA analysis was conducted to examine the effect of the two independent variables (treatment duration and treatment option) on the ratio of the peak intensities.

In data set [1] the target is T1, recombinant human PREP (Homo sapiens, UniProt P48147).
T1 sequence (P48147 1-710): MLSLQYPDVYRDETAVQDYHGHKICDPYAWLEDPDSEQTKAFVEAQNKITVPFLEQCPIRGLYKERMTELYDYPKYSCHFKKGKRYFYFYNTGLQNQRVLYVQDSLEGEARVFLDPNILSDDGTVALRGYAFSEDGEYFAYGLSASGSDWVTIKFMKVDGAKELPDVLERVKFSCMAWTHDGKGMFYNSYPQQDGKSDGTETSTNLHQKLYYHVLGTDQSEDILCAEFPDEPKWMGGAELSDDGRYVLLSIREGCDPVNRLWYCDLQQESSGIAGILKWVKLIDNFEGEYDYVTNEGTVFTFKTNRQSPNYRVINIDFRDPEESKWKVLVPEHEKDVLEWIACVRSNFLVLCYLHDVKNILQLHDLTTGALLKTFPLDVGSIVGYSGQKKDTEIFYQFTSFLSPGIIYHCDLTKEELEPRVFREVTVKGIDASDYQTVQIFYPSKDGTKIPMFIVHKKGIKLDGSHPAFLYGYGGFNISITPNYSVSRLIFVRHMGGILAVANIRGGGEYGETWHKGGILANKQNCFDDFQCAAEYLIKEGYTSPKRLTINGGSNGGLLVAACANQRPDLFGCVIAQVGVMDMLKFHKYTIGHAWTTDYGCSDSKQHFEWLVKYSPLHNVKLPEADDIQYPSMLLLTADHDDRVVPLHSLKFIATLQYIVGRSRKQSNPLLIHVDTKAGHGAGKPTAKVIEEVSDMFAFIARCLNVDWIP
Nature of the data set: Cleavage by recombinant PREP, MALDI-TOF/TOF. As to conditions: pH 7.4 (0.1 M potassium phosphate, 1 mM EDTA, 5 mM DTT), 100 µM substrate, 0 s to 1 h. On the procedure:
Supplementary Material File S3. Cleavage by recombinant PREP
Recombinant human PREP, expressed in BL21 (DE3) cells as previously described, was […]
(Laboratory for Medicinal Chemistry, University of Antwerp) or vehicle control at pH 7.4 (0.1 M potassium phosphate, 1 mM EDTA and 5 mM DTT). 100 μM substrate ((pyr)-apelin-13, (pyr)-apelin-13(1-12), Ang II or α-MSH 1-13) or vehicle control (PBS) was added. The reaction was stopped by acidification (pH<3) with 0.1% TFA after different time periods (0 s, 30 s, 1 min, 5 min, 15 min, 30 min or 1 h) and samples were stored at -80 °C.
A search for product peaks of the different peptides was conducted.
1. Van Elzen, R.; Schoenmakers, E.; Brandt, I.; Van Der Veken, P.; Lambeir, A.M.
Ligand-induced conformational changes in prolyl oligopeptidase: A kinetic approach.

The subject of a further data set is HUVEC. Nature of the data set: Substrate cleavage in HUVEC, supernatant analysed by MALDI-TOF/TOF. Conditions: 100 µM substrate. The format is in vitro ADME, human. The method, then:
as §1

For data set [2], the target named is T2, secreted PRCP in HUVEC supernatant (Homo sapiens, UniProt P42785).
T2 construct: endogenous in cells; host or cells: HUVEC and HAoEC (cell lysate and culture supernatant)
T2 sequence (P42785 46-496): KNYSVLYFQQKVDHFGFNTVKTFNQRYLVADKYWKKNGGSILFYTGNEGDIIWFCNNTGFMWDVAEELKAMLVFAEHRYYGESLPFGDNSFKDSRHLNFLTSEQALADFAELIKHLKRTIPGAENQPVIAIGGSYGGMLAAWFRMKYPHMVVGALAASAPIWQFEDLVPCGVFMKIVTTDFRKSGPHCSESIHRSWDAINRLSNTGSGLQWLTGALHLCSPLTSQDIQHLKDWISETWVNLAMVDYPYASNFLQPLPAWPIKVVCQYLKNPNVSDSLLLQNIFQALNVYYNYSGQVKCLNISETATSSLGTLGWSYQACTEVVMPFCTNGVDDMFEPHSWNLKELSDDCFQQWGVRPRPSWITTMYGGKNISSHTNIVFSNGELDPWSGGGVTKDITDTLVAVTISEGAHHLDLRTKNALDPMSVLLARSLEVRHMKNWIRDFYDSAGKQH
Nature of the data set: Incubation of (pyr)-apelin-13 with 24 h cellular supernatant of HUVEC. The format is in vitro ADME. Conditions: 100 µM substrate. On the procedure:
Supplementary Material File S4. Incubation of (pyr)-apelin-13 with cellular supernatant HUVEC were seeded at a density of 10 000 cells per well in 96-well plates in 100 µL full medium. After 24 h, medium was replaced by assay medium and the cells were incubated for another 24 h at 37 °C in 5% CO2. After 24 h, cell supernatants were harvested and incubated with vehicle control (1% DMSO) or 1 µM compound 8o for 15 min at 37 °C. Then, 100 μM (pyr)-apelin-13 or vehicle control (PBS) was added. The reaction was stopped by acidification (pH<3) with 0.1% TFA after 1 h and the samples were stored at -80 °C until further processing.
The experiment was independently conducted 4 times. To detect the cleavage of (pyr)-apelin-13 (m/z 1533.8), the samples were analysed by MALDI-TOF/TOF.
However, comparing this experiment with the initial experiment where (pyr)-apelin-13 was added to the cells for 24 h (Figure 1 of main manuscript), much less (pyr)-apelin-13 was […]
terminal (pyr)-apelin-13 cleavage seen in the initial experiment.
Figure S4.1: Incubation of 24 h cellular supernatant with (pyr)-apelin-13 during 1 h. (Pyr)- […]
(1 picture or pasted object on this page, not shown here)

For data set [3] the following is noted: plasma; cited from earlier work. From the text: Although (pyr)-apelin-13 has increased stability and a longer plasma half-life in comparison with the non-pyroglutamated isoforms, it still has a short half-life of only minutes. Angiotensin-converting enzyme 2 (ACE2, EC 3.4.17.23) was always considered to be the only enzyme responsible for the hydrolysis of the C-terminal Phe of (pyr)-apelin-13 [28, 29, 30], until we identified PRCP as an apelin-cleaving enzyme in 2016, during the search for new PRCP-substrates based on amino acid sequence. Although many efforts were made to elucidate the importance of this C-terminal P ...

A short description of data set [4]: 24 h cellular supernatant of HUVEC (assay medium), in the absence of cells. As to conditions: human, 37 °C, up to 1 h.
Another data set can be described thus: human plasma. As to conditions: cited from earlier work.
The nature of another data set: mouse plasma. Conditions: cited from earlier work.
The nature of another data set: rat plasma. Conditions: cited from earlier work.
Data set [5] is described as follows: HUVEC, 10,000 cells per well, in assay medium; supernatant analysed. As to conditions: human, 37 °C, up to 24 h.
Data set [6] in a line: human plasma of healthy volunteers. As to conditions: cited from earlier work.
The next data set relates to PRCP. The data set is described as follows: in vitro. As to conditions: cited from earlier work.
Data set [7] concerns Recombinant human PREP. The data set is described as follows: Recombinant human PREP at pH 7.4 (0.1 M potassium phosphate, 1 mM EDTA and 5 mM DTT). As to conditions: up to 1 h.
Data set [8] can be described thus: HAoEC, 10,000 cells per well, in assay medium; supernatant analysed. As to conditions: human, 37 °C, up to 24 h.
The subject of data set [9] is Angiotensin-converting enzyme 2 (ACE2, EC 3.4.17.23). Conditions: cited from earlier work.

For `CSCC[C@H](NC(=O)[C@@H]1CCCN1C(=O)CNC(=O)[C@H](CCCCN)NC(=O)[C@H](Cc1cnc[nH]1)NC(=O)[C@H](CO)NC(=O)[C@H](CC(C)C)NC(=O)[C@H](CCCNC(=N)N)NC(=O)[C@@H]1CCCN1C(=O)[C@H](CCCNC(=N)N)NC(=O)[C@@H]1CCC(=O)N1)C(=O)N1CCC[C@H]1C(=O)N[C@@H](Cc1ccccc1)C(=O)O` [(pyr)-apelin-13], the “C-terminal cleavage of (pyr)-apelin-13 to (pyr)-apelin-13(1–12), ratio of peak intensities in the supernatant” value in the data set with HAoEC (HAoEC 10,000 cells/well, 100 µM substrate, assay medium (5% full medium in HBSS), 37 °C, 0/2/4/8/24 h, all treatment groups, MALDI-TOF/TOF, n = 4) is on record as “significant after 24 h”; with HUVEC (HUVEC 10,000 cells/well, assay medium (5% full medium in HBSS), 37 °C, 0/2/4/8/24 h, all treatment groups, MALDI-TOF/TOF, n = 4), “significant after 24 h”. Also, the “Enzyme dependence of cleavage of (pyr)-apelin-13 to (pyr)-apelin-13(1–12)” value in the data set on HAoEC (HAoEC pre-treated 15 min with 1 µM compound 8o (PRCP) and/or 1 µM DX600 (ACE2), 100 µM substrate, 24 h, n = 4) is “PRCP- and ACE2-dependent”; with HUVEC (HUVEC pre-treated 15 min with 1 µM compound 8o (PRCP) and/or 1 µM DX600 (ACE2), 24 h, n = 4), “PRCP-dependent”. Besides, in the data set on HAoEC (HAoEC, 1 µM compound 8o and/or 1 µM DX600, data not shown), the “Involvement of PRCP and ACE2 in cleavage of (pyr)-apelin-13 to (pyr)-apelin-13(1-6)” value is recorded as “none of the studied enzymes were involved”. Besides, the “Cleavage of (pyr)-apelin-13 to (pyr)-apelin-13(1-6)” value in the data set with HAoEC (HAoEC, all treatment groups, 100 µM substrate, MALDI-TOF/TOF, data not shown) was “significant from 8 h onwards”; with HUVEC (HUVEC, MALDI-TOF/TOF), “could not be detected”. Further, the “C-terminal cleavage of (pyr)-apelin-13 to (pyr)-apelin-13(1–12), earliest observable time” value in the data set on HAoEC (control, PRCP-inhibited and ACE2-inhibited HAoEC, 100 µM substrate, 37 °C, MALDI-TOF/TOF, n = 4) was “already observable after 8 h”. Moreover, the “Cleavage by recombinant human PREP” value at recombinant human PREP [1] is recorded as “did not cleave; also recorded: could not observe”. In [2] (1 h, 37 °C, MALDI-TOF/TOF, 4 independent experiments), the “C-terminal cleavage of (pyr)-apelin-13 in cell-free 24 h HUVEC supernatant” value was “cleaved at its C-terminus after 1 h”. In addition, the “Extent of PRCP-mediated cleavage in cell-free HUVEC supernatant compared with the cellular experiment” value in data set [2] (1 h versus 24 h with cells) was “to a much lesser extent”. The half-life entry in data set [3] is listed as “only minutes”.
For pERPRLSHKGPMPF, the cleaved bond entry in data set [4] was “P12-Phe13, 1 h”; in the data set “human plasma”, “Leu5-Ser6, first_seen; also recorded: Ser6-His7”; in “mouse plasma”, “Leu5-Ser6, first_seen; also recorded: Ser6-His7”; in the data set “rat plasma”, “Leu5-Ser6, first_seen; also recorded: Ser6-His7”; in data set [5], “P12-Phe13, 24 h”; in the data set on PRCP, “P12-Phe13”. The cleaved bond entry in data set [8] was “P12-Phe13, 8 h; also recorded: Ser6-His7, 8 h”; in [9], “P12-Phe13”. In addition, the not cleaved entry in data set [5] is “In HUVEC, this product could not be detected”; in the data set with Recombinant human PREP [7], “Only the peaks corresponding with the intact peptides could be observed”. Moreover, the fragment found entry in [6] is on record as “(pyr)-apelin-13(1-6)”.
